# Data reported in patent US20240059753A1, “COMPOSITIONS INCLUDING MULTI-AGONIST PEPTIDES AND METHODS OF MANUFACTURE AND USE” (Pep2Tango Therapeutics Inc., priority 2022, published 2024).
# Where a name gives a salt, the structure may show the parent alone. Numbered stars: 1 amine (or outer) side, 2 acyl side, 3 side chain; on linkers, the order of the positions; unused ones are H or OH. Bridge positions count the residues as written; N and C are the ends. Square brackets hold non-standard residues; d marks the D form. Side chains are listed from the residue outwards. * marks the point of attachment. C20 diacid = O=C(O)CCCCCCCCCCCCCCCCCCC(=O)*; C18 diacid = O=C(O)CCCCCCCCCCCCCCCCC(=O)*; γGlu = O=C(O)[C@H](CCC(=O)[*:2])N[*:1]; AEEA = NCCOCCOCC(=O)O; Aib = CC(C)(N)C(=O)O
# T1: Human CalcitoninR (Homo sapiens, UniProt P30988)
# T1 construct: expressed in transfected cells; host or cells: CHO-K1, stably transfected
# T1 sequence (P30988 25-474): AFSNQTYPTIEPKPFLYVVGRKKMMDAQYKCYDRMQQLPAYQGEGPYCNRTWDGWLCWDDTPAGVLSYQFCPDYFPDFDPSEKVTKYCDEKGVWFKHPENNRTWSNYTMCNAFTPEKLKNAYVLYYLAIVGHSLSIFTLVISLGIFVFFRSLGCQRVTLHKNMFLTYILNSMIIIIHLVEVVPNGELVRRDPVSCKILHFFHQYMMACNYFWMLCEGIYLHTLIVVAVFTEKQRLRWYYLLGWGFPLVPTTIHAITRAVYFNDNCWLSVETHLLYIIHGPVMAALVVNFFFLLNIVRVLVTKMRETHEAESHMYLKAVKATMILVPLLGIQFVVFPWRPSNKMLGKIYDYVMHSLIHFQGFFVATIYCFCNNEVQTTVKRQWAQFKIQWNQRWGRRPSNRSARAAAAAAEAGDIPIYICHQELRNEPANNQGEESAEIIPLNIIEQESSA
# T2: Human GIPR (Homo sapiens, UniProt P48546)
# T2 construct: expressed in transfected cells; host or cells: CHO-K1, stably transfected
# T2 sequence (P48546 22-466): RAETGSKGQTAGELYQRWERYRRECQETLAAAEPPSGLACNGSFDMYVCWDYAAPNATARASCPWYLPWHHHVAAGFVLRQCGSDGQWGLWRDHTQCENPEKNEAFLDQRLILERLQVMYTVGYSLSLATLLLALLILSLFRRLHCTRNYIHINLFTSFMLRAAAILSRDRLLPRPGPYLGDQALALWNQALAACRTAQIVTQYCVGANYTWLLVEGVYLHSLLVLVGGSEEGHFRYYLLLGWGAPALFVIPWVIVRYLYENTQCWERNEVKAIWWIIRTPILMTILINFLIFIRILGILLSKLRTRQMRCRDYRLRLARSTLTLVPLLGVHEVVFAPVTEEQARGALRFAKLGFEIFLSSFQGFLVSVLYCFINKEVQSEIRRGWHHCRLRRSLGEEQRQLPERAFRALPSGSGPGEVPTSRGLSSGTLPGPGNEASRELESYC
# T3: Human Calc/RAMP3R (AMY3) (Homo sapiens, UniProt O60896+P30988)
# T3 construct: expressed in transfected cells; host or cells: CHO-K1, stably transfected
# T3 sequence (P30988 25-474): T1 sequence (P30988 25-474)
# T3 sequence (O60896 24-148 partner): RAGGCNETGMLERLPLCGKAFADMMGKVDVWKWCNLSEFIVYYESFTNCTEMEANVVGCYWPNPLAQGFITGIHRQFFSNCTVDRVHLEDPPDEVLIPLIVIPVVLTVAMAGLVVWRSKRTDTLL
# B1: Y-Aib-E-G-T-F-T-S-D-Y-S-I-Aib-LDKIAQQAFVQWLIAGGPSSGAPPPSCNTATCVLGRLSQELHRLQTYPRTNTGK*-N-T-Y-NH2-acetate salt (wherein K* = … (peptide)
# chain: Y[Aib]EGTFTSDYSI[Aib]LDKIAQQAFVQWLIAGGPSSGAPPPSCNTATCVLGRLSQELHRLQTYPRTNTGK([γGlu-γGlu-C20 diacid])NTY-NH2
# modifications: also: acetate salt
# What was measured:
# Human CalcitoninR = biological target: T1, Human CalcitoninR; test: GPCR cell-based cAMP assay, human calcitonin receptor; settings: stably transfected CHO-Kl cells, 0.1% casein
# Experimental: (§1) Experimental protocol: Cells were seeded in a total volume of 20 μL into white walled, 384-well microplates and incubated at 37° C. overnight prior to testing. Prior to testing cell plating media was exchanged with 10 μL of Assay buffer (HBSS+10 mM HEPES). All compounds were run in assay buffer containing 0.1% casein. Briefly, intermediate dilution of sample stocks was performed to generate 4× sample in assay buffer. 5 μL of 4× sample was added to cells and incubated at 37° C. for 30 minutes. Final assay vehicle concentration was 1%. […] Microplates were read following signal generation with PerkinElmer Envision instrument for chemiluminescent signal detection.
# (§2) The results are expressed as a percent efficacy relative to the maximum response of the control ligand.
# Human GLP-1R = Human GLP-1R (Homo sapiens, UniProt P43220); test: GPCR cell-based cAMP assay, human GLP-1 receptor; design: expressed in transfected cells; host or cells: CHO-K1, stably transfected; settings: stably transfected CHO-Kl cells, 0.1% casein
# Human GLP-1R, sequence (P43220 24-463): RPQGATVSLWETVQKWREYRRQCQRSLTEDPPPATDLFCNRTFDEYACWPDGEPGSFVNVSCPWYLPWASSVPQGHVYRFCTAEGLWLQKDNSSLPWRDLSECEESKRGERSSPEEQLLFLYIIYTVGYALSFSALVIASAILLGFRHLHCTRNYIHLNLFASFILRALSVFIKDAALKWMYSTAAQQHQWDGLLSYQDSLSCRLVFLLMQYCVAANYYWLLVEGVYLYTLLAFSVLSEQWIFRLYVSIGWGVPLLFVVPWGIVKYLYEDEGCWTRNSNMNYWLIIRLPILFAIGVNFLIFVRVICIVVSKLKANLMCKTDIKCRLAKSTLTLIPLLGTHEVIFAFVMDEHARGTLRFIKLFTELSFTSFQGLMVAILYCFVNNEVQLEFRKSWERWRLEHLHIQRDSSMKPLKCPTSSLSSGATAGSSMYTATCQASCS
# Experimental: as §1, §2
# Human GIPR = biological target: T2, Human GIPR; test: GPCR cell-based cAMP assay, human GIP receptor; settings: stably transfected CHO-Kl cells, 0.1% casein
# Experimental: as §1, §2
# Human Calc/RAMP3R (AMY3) = biological target: T3, Human Calc/RAMP3R (AMY3); test: GPCR cell-based cAMP assay, human AMY3 receptor; settings: stably transfected CHO-Kl cells, 0.1% casein
# Experimental: as §1, §2
# 4 h fasted mice = test: Blood glucose after single administration of peptides; assay type: in vivo
# Experimental: Differences were considered statistically significant at p<0.05. Data analysis was carried out with GraphPad software (GraphPad Prism).
Molecule,EC50 (Human CalcitoninR) [nM],EC50 (Human GLP-1R) [nM],EC50 (Human GIPR) [nM],EC50 (Human Calc/RAMP3R (AMY3)) [nM],"Blood glucose, 120 min (4 h fasted mice; 4 h fasted mice, single s.c. 10 nmol/Kg, 120 min after injection, mean ± SEM) [mg/dL]","Blood glucose, 240 min (4 h fasted mice; 4 h fasted mice, single s.c. 10 nmol/Kg, 240 min after injection, mean ± SEM) [mg/dL]","Blood glucose, Time 0 (4 h fasted mice; 4 h fasted mice, single s.c. 10 nmol/Kg, Time 0 (baseline), mean ± SEM) [mg/dL]",Significantly reduced blood glucose at 120 min and 240 min compared to time 0 (4 h fasted mice; single s.c. 10 nmol/kg)
"CC[C@H](C)[C@H](NC(=O)[C@H](CC(C)C)NC(=O)[C@H](Cc1c[nH]c2ccccc12)NC(=O)[C@H](CCC(N)=O)NC(=O)[C@@H](NC(=O)[C@H](Cc1ccccc1)NC(=O)[C@H](C)NC(=O)[C@H](CCC(N)=O)NC(=O)[C@H](CCC(N)=O)NC(=O)[C@H](C)NC(=O)[C@@H](NC(=O)[C@H](CCCCN)NC(=O)[C@H](CC(=O)O)NC(=O)[C@H](CC(C)C)NC(=O)C(C)(C)NC(=O)[C@@H](NC(=O)[C@H](CO)NC(=O)[C@H](Cc1ccc(O)cc1)NC(=O)[C@H](CC(=O)O)NC(=O)[C@H](CO)NC(=O)[C@@H](NC(=O)[C@H](Cc1ccccc1)NC(=O)[C@@H](NC(=O)CNC(=O)[C@H](CCC(=O)O)NC(=O)C(C)(C)NC(=O)[C@@H](N)Cc1ccc(O)cc1)[C@@H](C)O)[C@@H](C)O)[C@@H](C)CC)[C@@H](C)CC)C(C)C)C(=O)N[C@@H](C)C(=O)NCC(=O)NCC(=O)N1CCC[C@H]1C(=O)N[C@@H](CO)C(=O)N[C@@H](CCCCNC(=O)COCCOCCNC(=O)COCCOCCNC(=O)CC[C@H](NC(=O)CCCCCCCCCCCCCCCCC(=O)O)C(=O)O)C(=O)N[C@H]1CSSC[C@@H](C(=O)N[C@@H](C)C(=O)N[C@H](C(=O)N[C@@H](CCC(N)=O)C(=O)N[C@@H](CCCNC(=N)N)C(=O)N[C@@H](CC(C)C)C(=O)N[C@@H](C)C(=O)N[C@@H](CCC(=O)O)C(=O)N[C@@H](Cc2ccccc2)C(=O)N[C@@H](CC(C)C)C(=O)N[C@@H](CCCNC(=N)N)C(=O)N[C@@H](Cc2c[nH]cn2)C(=O)N[C@@H](CO)C(=O)N[C@@H](CO)C(=O)N[C@@H](CC(N)=O)C(=O)N[C@@H](CC(N)=O)C(=O)N[C@@H](Cc2ccccc2)C(=O)NCC(=O)N2CCC[C@H]2C(=O)N[C@H](C(=O)N[C@@H](CC(C)C)C(=O)N2CCC[C@H]2C(=O)N2CCC[C@H]2C(=O)N[C@H](C(=O)N[C@@H](CC(N)=O)C(=O)N[C@H](C(=O)NCC(=O)N[C@@H](CO)C(=O)N[C@@H](Cc2c[nH]cn2)C(=O)N[C@H](C(=O)N2CCC[C@H]2C(N)=O)[C@@H](C)O)C(C)C)[C@@H](C)O)[C@@H](C)CC)[C@@H](C)O)NC(=O)[C@H]([C@@H](C)O)NC(=O)[C@H](C)NC(=O)[C@H]([C@@H](C)O)NC(=O)[C@H](CC(N)=O)NC1=O [SEQ ID NO. 55, Y-Aib-E-G-T-F-T-S-D-Y-S-I-Aib-LDKIAQQAFVQWLIAGGPSK*-CNTATCATQRLAEFLRHSSNNFGPILPPTNVGSHTP-NH2-acetate salt (wherein K* = Lys(AEEAc-AEEAc-γ-Glu-17-carboxyheptadecanoyl))]",44.2,0.324,0.019,46.1,–,–,–,–
Cagrilintide [reference compound],–,–,–,–,189.7 ± 5.52,164.6 ± 6.48,169.0 ± 3.45,not
"Y[Aib]EGTFTSDYSI[Aib]LDKIAQQAFVQWLIAGGPSASHLSTAVLGK([AEEA-AEEA-γGlu-C18 diacid])LS[Aib]ELHKLEDYPRTDVGAESP-NH2 [SEQ ID NO. 57, Y-Aib-E-G-T-F-T-S-D-Y-S-I-Aib-LDKIAQQAFVQWLIAGGPSASHLSTAVLGK*-L-S-Aib-E-L-H-K-L-E-D-Y-P-R-T-D-V-G-A-E-S-P-NH2-acetate salt (wherein K* = Lys(AEEAc-AEEAc-γ-Glu-17-carboxyheptadecanoyl))]",0.044,0.724,0.047,0.152,–,–,–,–
"Y[Aib]EGTFTSDYSI[Aib]LDKIAQQAFVQWLIAGGPSKCNTATCATQK([AEEA-AEEA-γGlu-C18 diacid])LAEFLRHSSNNFGPILPPTNVGSHTP-NH2 (disulfide 34-39 (inferred)) [SEQ ID NO. 56, Y-Aib-E-G-T-F-T-S-D-Y-S-I-Aib-LDKIAQQAFVQWLIAGGPSKCNTATCATQK*-LAEFLRHSSNNFGPILPPTNVGSHTP-NH2-acetate salt (wherein K* = Lys(AEEAc-AEEAc-γ-Glu-17-carboxyheptadecanoyl))]",–,1,0.029,–,–,–,–,–
"Y[Aib]EGTFTSDYSI[Aib]LDKIAQQAFVQWLIAGGPSSGAPPPSCNTATCVLGRLSQELHRLQTYPRTNTGK([AEEA-AEEA-γGlu-C18 diacid])NTY-NH2 (disulfide 40-45 (inferred)) [SEQ ID NO. 45, Y-Aib-E-G-T-F-T-S-D-Y-S-I-Aib-LDKIAQQAFVQWLIAGGPSSGAPPPSCNTATCVLGRLSQELHRLQTYPRTNTGK*-N-T-Y-NH2-acetate salt (wherein K* is Lys(AEEAc-AEEAc-γ-Glu-17-carboxyheptadecanoyl))]",0.106,0.416,0.041,0.333,–,–,–,–
"Y[Aib]EGTFTSDYSI[Aib]LDKIAQQAFVQWLIAGGPSSGAPPPSKCNTATCVLGRLSQELHRLQTYPRTNTK([AEEA-AEEA-γGlu-C18 diacid])SNTY-NH2 (disulfide 41-46 (inferred)) [SEQ ID NO. 52, Y-Aib-E-G-T-F-T-S-D-Y-S-I-Aib-LDKIAQQAFVQWLIAGGPSSGAPPPSKCNTATCVLGRLSQELHRLQTYPRTNTK*-S-N-T-Y-NH2-acetate salt (wherein K* is Lys(AEEAc-AEEAc-γ-Glu-17-carboxyheptadecanoyl))]",0.694,0.59,0.147,1.24,–,–,–,–
B1,0.388,0.854,0.011,0.218,–,–,–,–
